Measurements as given in patent US10611740B2, “Aryl dihydro-2H-benzo[b][1,4]oxazine sulfonamide and related compounds for use as agonists of RORγ and the treatment of disease” (Lycera Corporation, priority 2015, dated 2020).

Columns and labels:
RORγ-LBD = biological target: T1, RORγ-LBD (Homo sapiens, UniProt P51449); assay: RORγ-Ligand Binding Domain (LBD) TR-FRET Assay; type: biochemical;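 for TR-FRET Assay Max Response: 665/615 nm ratio relative to signal without ursolic acid or compound set at 100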
T1 construct: made in house; host or cells: SF9 cells (baculovirus)
T1 sequence (P51449 269-508 limits assumed): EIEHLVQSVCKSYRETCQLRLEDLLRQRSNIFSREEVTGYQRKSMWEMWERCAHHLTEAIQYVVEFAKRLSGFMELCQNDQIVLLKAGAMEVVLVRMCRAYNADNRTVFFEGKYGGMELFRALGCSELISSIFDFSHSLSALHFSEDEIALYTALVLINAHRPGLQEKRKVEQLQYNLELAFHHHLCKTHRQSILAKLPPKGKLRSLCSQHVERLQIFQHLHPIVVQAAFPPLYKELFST
Method in brief: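 His-tagged RORγ-LBD from SF9 baculovirus lysate, ~3 nM final, in 50 mM Tris pH 7.0, 50 mM KCl, 1 mM EDTA, 0.1 mM DTT, 0.01% BSA. Biotinylated SRC1 LXXLL peptide at 200 nM final with 2 μM ursolic acid; TR-FRET read-out, 1% DMSO final.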

Gal4-RORγ-LBD = biological target: T2, Gal4-RORγ-LBD (Homo sapiens, UniProt P51449); assay: Gal4-RORγ Luciferase Reporter Assay in HEK-293T Cells; type: cell-based; details: HEK-293 cells
T2 construct: expressed in transfected cells; host or cells: HEK-293 cells (pcDNA3.1neo plasmid)
T2 sequence (P51449 269-508 limits assumed): T1 sequence (P51449 269-508 limits assumed)
Method in brief: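 HEK-293 cells were transiently co-transfected with Gal4-RORγ-LBD and pGL4.31 Gal4-luciferase, with ursolic acid added at 2 μM final. Compounds were incubated overnight at 37° C. in 0.2% DMSO and luminescence read with One-Glo. Max Response is the upper plateau of a 4-parameter logistic fit, with signal lacking ursolic acid or compound set to 100.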

[1] = luciferase reporter, with 2 μM ursolic acid

Row | Structure (SMILES) | EC50 (RORγ-LBD) [nM] | EC50 (Gal4-RORγ-LBD; 2 μM ursolic acid) [nM] | EC50 (Gal4-RORγ-LBD; [1]) [nM] | TR-FRET Assay Max Response (RORγ-LBD) | Gal4-RORγ Assay Max Response (Gal4-RORγ-LBD; 2 μM ursolic acid) | Gal4-RORγ Assay Max Response (Gal4-RORγ-LBD; [1])
1 | O=C(O)C1CCN(C(=O)CC[C@H]2CN(S(=O)(=O)c3cccc(C(F)(F)F)c3)c3cc(-c4cccc(C(F)(F)F)n4)ccc3O2)CC1 [Compound 23F, (S)-1-(3-(4-((3-(trifluoromethyl)-phenyl)sulfonyl)-6-(6-(trifluoro-methyl)pyridin-2-yl)-3,4-dihydro-2H-benzo[b][1,4]oxazin-2-yl)propanoyl)piperidine-4-carboxylic acid] | < 500 |  | < 500 | **** (The symbol “****” indicates a value greater than 200) |  | ** (The symbol “**” indicates a value in the range of greater than 90 to 150)
2 | O=C(CC[C@H]1CN(S(=O)(=O)c2cccc(C(F)(F)F)c2)c2cc(-c3cccc(C(F)(F)F)n3)ccc2O1)N1CCS(=O)(=O)CC1 [Compound 23G, (S)-1-(1,1-dioxidothio-morpholino)-3-(4-((3-(trifluoro-methyl)phenyl)sulfonyl)-6-(6-(trifluoromethyl)pyridin-2-yl)-3,4-dihydro-2H-benzo[b][1,4]-oxazin-2-yl)propan-1-one] | < 500 |  | < 500 | **** (The symbol “****” indicates a value greater than 200) |  | ** (The symbol “**” indicates a value in the range of greater than 90 to 150)
3 | COc1cccc(-c2cc(F)c3c(c2)N(S(=O)(=O)c2cccc(C(F)(F)F)c2)C[C@H](CCC(=O)N2CCC(C(=O)O)CC2)O3)c1 [Compound 23H, (S)-1-(3-(8-fluoro-6-(3-methoxyphenyl)-4-((3-(trifluoromethyl)phenyl)sulfonyl)-3,4-dihydro-2H-benzo[b][1,4]oxazin-2-yl)propanoyl)piperidine-4-carboxylic acid] | < 500 |  | < 500 | **** (The symbol “****” indicates a value greater than 200) |  | ** (The symbol “**” indicates a value in the range of greater than 90 to 150)
4 | O=C(O)C1CCN(C(=O)CC[C@H]2CN(S(=O)(=O)c3cccc(C(F)(F)F)c3)c3cc(-c4cccc(F)c4F)cc(F)c3O2)CC1 [Compound 23I, (S)-1-(3-(6-(2,3-difluorophenyl)-8-fluoro-4-((3-(trifluoromethyl)phenyl)sulfonyl)-3,4-dihydro-2H-benzo[b][1,4]oxazin-2-yl)propanoyl)piperidine-4-carboxylic acid] | < 500 |  | < 500 | **** (The symbol “****” indicates a value greater than 200) |  | ** (The symbol “**” indicates a value in the range of greater than 90 to 150)
5 | O=C(O)CNC(=O)CC[C@H]1CN(S(=O)(=O)c2cccc(C(F)(F)F)c2)c2cc(-c3cccc(C(F)(F)F)n3)ccc2O1 [Compound 23J, (S)-(3-(4-((3-(trifluoromethyl)-phenyl)sulfonyl)-6-(6-(trifluoromethyl)pyridin-2-yl)-3,4-dihydro-2H-benzo[b][1,4]oxazin-2-yl)propanoyl)glycine] | < 500 |  | 5000 to 10000 | **** (The symbol “****” indicates a value greater than 200) |  | *** (The symbol “***” indicates a value in the range of greater than 150 to 200)
6 | COc1cccc(-c2ccc3c(c2)N(S(=O)(=O)c2cccc(C(F)(F)F)c2)C[C@H](CCC(=O)NCC(=O)O)O3)c1 [Compound 23K, (S)-(3-(6-(3-methoxyphenyl)-4-((3-(trifluoromethyl)-phenyl)sulfonyl)-3,4-dihydro-2H-benzo[b][1,4]oxazin-2-yl)propanoyl)glycine] | < 500 |  | 500 to 5000 | **** (The symbol “****” indicates a value greater than 200) |  | ** (The symbol “**” indicates a value in the range of greater than 90 to 150)
7 | COc1cccc(-c2ccc3c(c2)N(S(=O)(=O)c2cccc(C(F)(F)F)c2)C[C@H](CCC(=O)N2CCC(C(=O)O)CC2)O3)c1 [Compound 23L, (S)-1-(3-(6-(3-methoxyphenyl)-4-((3-(trifluoromethyl)-phenyl)sulfonyl)-3,4-dihydro-2H-benzo[b][1,4]oxazin-2-yl)propanoyl)piperidine-4-carboxylic acid] | < 500 |  | < 500 | **** (The symbol “****” indicates a value greater than 200) |  | ** (The symbol “**” indicates a value in the range of greater than 90 to 150)
8 | COc1cccc(-c2ccc3c(c2)N(S(=O)(=O)c2cccc(C(F)(F)F)c2)C[C@H](CCC(=O)N2CCS(=O)(=O)CC2)O3)c1 [Compound 23M, (S)-1-(1,1-dioxidothio-morpholino)-3-(6-(3-methoxyphenyl)-4-((3-(trifluoromethyl)phenyl)sulfonyl)-3,4-dihydro-2H-benzo[b][1,4]-oxazin-2-yl)propan-1-one] | < 500 |  | < 500 | **** (The symbol “****” indicates a value greater than 200) |  | *** (The symbol “***” indicates a value in the range of greater than 150 to 200)
9 | O=C(CC[C@H]1CN(S(=O)(=O)c2cccc(C(F)(F)F)c2)c2cc(-c3cccc(F)c3F)ccc2O1)N1CCS(=O)(=O)CC1 [Compound 23N, (S)-3-(6-(2,3-difluorophenyl)-4-((3-(trifluoromethyl)-phenyl)sulfonyl)-3,4-dihydro-2H-benzo[b][1,4]oxazin-2-yl)-1-(1,1-dioxidothiomorpholino)propan-1-one] | < 500 |  | < 500 | **** (The symbol “****” indicates a value greater than 200) |  | *** (The symbol “***” indicates a value in the range of greater than 150 to 200)

Continued, in another order:

Row | EC50 (RORγ-LBD) [nM] | EC50 (Gal4-RORγ-LBD; 2 μM ursolic acid) [nM] | EC50 (Gal4-RORγ-LBD; [1]) [nM] | Structure (SMILES) | TR-FRET Assay Max Response (RORγ-LBD) | Gal4-RORγ Assay Max Response (Gal4-RORγ-LBD; 2 μM ursolic acid) | Gal4-RORγ Assay Max Response (Gal4-RORγ-LBD; [1])
10 | < 500 | < 500 |  | O=C(O)CC[C@H]1CN(S(=O)(=O)c2cccc(C(F)(F)F)c2)c2cc(-c3cc(F)cc(F)c3)cc(F)c2O1 [Compound 22K, (S)-3-(6-(3,5-difluorophenyl)-8-fluoro-4-((3-(trifluoromethyl)-phenyl)sulfonyl)-3,4-dihydro-2H-benzo[b][1,4]oxazin-2-yl)propanoic acid] | *** (The symbol “***” indicates a value in the range of greater than 150 to 200) | ** (The symbol “**” indicates a value in the range of greater than 90 to 150) | 
11 | < 500 |  | < 500 | O=C(CC[C@H]1CN(S(=O)(=O)c2cccc(C(F)(F)F)c2)c2cc(-c3cccc(Cl)c3)ccc2O1)N1CCS(=O)(=O)CC1 [Compound 23A, (S)-3-(6-(3-chlorophenyl)-4-((3-(trifluoromethyl)phenyl)sulfonyl)-3,4-dihydro-2H-benzo[b][1,4]-oxazin-2-yl)-1-(1,1-dioxidothio-morpholino)propan-1-one] | **** (The symbol “****” indicates a value greater than 200) |  | ** (The symbol “**” indicates a value in the range of greater than 90 to 150)
12 | < 500 |  | < 500 | O=C(CC[C@H]1CN(S(=O)(=O)c2cccc(C(F)(F)F)c2)c2cc(-c3cccc(Cl)c3)ccc2O1)N1CCOCC1 [Compound 23B, (S)-3-(6-(3-chlorophenyl)-4-((3-(trifluoromethyl)phenyl)sulfonyl)-3,4-dihydro-2H-benzo[b][1,4]-oxazin-2-yl)-1-morpholino-propan-1-one] | **** (The symbol “****” indicates a value greater than 200) |  | ** (The symbol “**” indicates a value in the range of greater than 90 to 150)
13 | < 500 |  | < 500 | O=C(O)C1CCN(C(=O)CC[C@H]2CN(S(=O)(=O)c3cccc(C(F)(F)F)c3)c3cc(-c4cccc(Cl)c4)ccc3O2)CC1 [Compound 23C, (S)-1-(3-(6-(3-chlorophenyl)-4-((3-(trifluoromethyl)phenyl)-sulfonyl)-3,4-dihydro-2H-benzo[b][1,4]oxazin-2-yl)propanoyl)piperidine-4-carboxylic acid] | *** (The symbol “***” indicates a value in the range of greater than 150 to 200) |  | ** (The symbol “**” indicates a value in the range of greater than 90 to 150)
14 | < 500 |  | < 500 | O=C(O)CCNC(=O)CC[C@H]1CN(S(=O)(=O)c2cccc(C(F)(F)F)c2)c2cc(-c3cccc(Cl)c3)ccc2O1 [Compound 23D, (S)-3-(3-(6-(3-chlorophenyl)-4-((3-(trifluoromethyl)phenyl)-sulfonyl)-3,4-dihydro-2H-benzo[b][1,4]oxazin-2-yl)propanamido)propanoic acid] | *** (The symbol “***” indicates a value in the range of greater than 150 to 200) |  | ** (The symbol “**” indicates a value in the range of greater than 90 to 150)
15 | < 500 |  | < 500 | O=C(O)C1CCN(C(=O)CC[C@H]2CN(S(=O)(=O)c3cccc(C(F)(F)F)c3)c3cc(-c4cccc(C(F)(F)F)n4)cc(F)c3O2)CC1 [Compound 23E, (S)-1-(3-(8-fluoro-4-((3-(trifluoromethyl)phenyl)sulfonyl)-6-(6-(trifluoromethyl)pyridin-2-yl)-3,4-dihydro-2H-benzo[b][1,4]oxazin-2-yl)propanoyl)piperidine-4-carboxylic acid] | **** (The symbol “****” indicates a value greater than 200) |  | ** (The symbol “**” indicates a value in the range of greater than 90 to 150)
